Reference: patent US20240116985A1, “STAPLED PEPTIDES AND METHODS THEREOF” (priority 2020, published 2024)
pIC50: −log10 of the molar value. Converted amounts (≈) assume the structure as drawn. Read-outs that look alike come from different tables or passages of the source.

How the values were obtained:
[1] = target: T1, full-length beta-Catenin (Uniprot ID P35222) (Homo sapiens, UniProt P35222); experiment: Fluorescence polarization IC50 (beta-catenin / 5FAM-TCF4 10-53 competition); assay type: binding
T1 construct: 10 nM full-length beta-Catenin (Uniprot ID P35222)
T1 sequence (P35222 1-781): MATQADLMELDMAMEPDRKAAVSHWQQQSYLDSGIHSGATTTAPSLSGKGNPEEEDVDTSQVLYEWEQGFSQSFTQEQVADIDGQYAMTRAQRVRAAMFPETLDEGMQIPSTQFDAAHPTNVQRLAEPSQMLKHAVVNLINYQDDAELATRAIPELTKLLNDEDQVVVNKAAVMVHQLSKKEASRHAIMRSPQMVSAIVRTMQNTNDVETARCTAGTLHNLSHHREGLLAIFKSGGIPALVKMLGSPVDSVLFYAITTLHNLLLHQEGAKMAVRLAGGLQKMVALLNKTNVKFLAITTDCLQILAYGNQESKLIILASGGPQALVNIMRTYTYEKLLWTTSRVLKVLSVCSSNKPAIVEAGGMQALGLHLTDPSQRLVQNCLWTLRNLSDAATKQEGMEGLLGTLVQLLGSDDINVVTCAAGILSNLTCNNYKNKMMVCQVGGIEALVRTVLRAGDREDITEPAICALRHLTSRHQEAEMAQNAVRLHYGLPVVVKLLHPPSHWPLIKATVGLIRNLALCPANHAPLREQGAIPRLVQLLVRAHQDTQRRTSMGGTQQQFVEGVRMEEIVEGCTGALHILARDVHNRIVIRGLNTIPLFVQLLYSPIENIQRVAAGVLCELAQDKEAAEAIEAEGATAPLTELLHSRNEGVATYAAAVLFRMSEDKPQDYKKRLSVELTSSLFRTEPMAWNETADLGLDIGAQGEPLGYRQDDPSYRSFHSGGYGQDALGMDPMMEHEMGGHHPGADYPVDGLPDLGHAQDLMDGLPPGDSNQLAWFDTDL

[2] = Solubility in PBS; assay type: physicochemical
Summary of the method: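 PBS sample ultracentrifuged; supernatant run on HPLC vs. 50 μM peptide in DMSO standard. Solubility = (PBS peak area / DMSO peak area) × 50 uM.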

[3] = CHI Log D procedure; assay type: physicochemical; settings: for chromatographic logD: pH 7.4, CHI Log D; for CHI Log D: pH 7.4
[4] = fluorescence polarization, read-out: beta-Catenin FP IC50
[5] = Table E2-1, read-out: beta-Catenin FP IC50
[6] = fluorescence polarization, beta-catenin, read-out: FP EC50

SMILES	pIC50 [1, 4]	Solubility ([2]; Solubility (uM)) [µM]	chromatographic logD [3]	pIC50 ([1]; read-out: FP EC50)	Solubility [2] [µM]	CHI Log D [3]	pIC50 [1, 5]	pIC50 ([1]; read-out: beta-Catenin FP IC50)	pIC50 [1, 6]
CC(=O)N1CCC[C@]12CC=CCCCC1(CCCC=CCCCCCC[C@@](C)(C(=O)N[C@@H](Cc3ccccc3)C(=O)N[C@@H](Cc3csc4ccccc34)C(=O)N[C@@H](CCC(N)=O)C(N)=O)NC(=O)[C@H](CC(N)=O)NC(=O)[C@H](Cc3ccccc3)NC(=O)[C@H](C)NC(=O)[C@H](C)NC(=O)[C@H](CCC(=O)O)NC(=O)[C@H](CC(=O)O)NC1=O)NC(=O)[C@H](C)NC(=O)[C@H](CNS(C)(=O)=O)NC2=O (stereo partly drawn) [I-534, Ac-PL3-[MeSO2]Dap-Ala-B5-Asp-Glu-Ala-Ala-Phe-Asn-S8-Phe-BztA-Gln-NH2]	5.30	31 (≈ 58.2 µg/mL)	2.43						
CC(=O)N1CCC[C@]12CC=CCCCC1(CCCC=CCCCCCC[C@@](C)(C(=O)N[C@@H](Cc3ccccc3)C(=O)N[C@@H](Cc3csc4ccccc34)C(=O)N[C@@H](CCC(N)=O)C(N)=O)NC(=O)[C@H](C(C)C)NC(=O)[C@H](Cc3ccccc3)NC(=O)[C@H](C)NC(=O)[C@H](C)NC(=O)[C@H](CC(=O)O)NC(=O)[C@H](CC(=O)NC3CC3)NC1=O)NC(=O)[C@H](C)NC(=O)[C@H](CC(=O)O)NC2=O (stereo partly drawn) [I-538, Ac-PL3-Asp-Ala-B5-[NHCyPr]AsnR-Asp-Ala-Ala-Phe-Val-S8-Phe-BztA-Gln-NH2]	5.30	33 (≈ 60.6 µg/mL)	2.75						
CC[C@H](C)[C@@H]1NC(=O)[C@H](CC(=O)O)NC(=O)[C@]2(CC=CCCCC3(CCCC=CCCCCCC[C@@](C)(C(=O)N[C@@H](Cc4ccccc4OC)C(=O)N[C@@H](Cc4csc5ccccc45)C(=O)N[C@@H](Cc4c[nH]cn4)C(N)=O)NC(=O)[C@H](CC(N)=O)NC(=O)[C@H](Cc4ccccc4)NC(=O)[C@H](C)NC(=O)[C@H](C)NC(=O)[C@H](CC(=O)O)NC(=O)[C@H](CC(=O)O)NC3=O)NC1=O)CCCN2C(C)=O (stereo partly drawn) [I-554, Ac-PL3-Asp-Ile-B5-Asp-Asp-Ala-Ala-Phe-Asn-S8-2OMeF-BztA-His-NH2]	7.56			7.56	35 (≈ 66.3 µg/mL)	2.457			
CC(=O)N1CCC[C@]12CC=CCCCC1(CCCC=CCCCCCC[C@@](C)(C(=O)N[C@@H](Cc3ccccc3)C(=O)N[C@@H](Cc3csc4ccccc34)C(=O)N[C@@H](CCC(N)=O)C(N)=O)NC(=O)[C@H]([C@@H](C)O)NC(=O)[C@H](Cc3ccccc3)NC(=O)[C@H](C)NC(=O)[C@H](C)NC(=O)[C@H](CC(=O)O)NC(=O)[C@H](CC(=O)O)NC1=O)NC(=O)[C@H](C)NC(=O)[C@H](CC(=O)O)NC2=O (stereo partly drawn) [I-342, Ac-PL3-Asp-Ala-B5-Asp-Asp-Ala-Ala-Phe-Thr-S8-Phe-BztA-Gln-NH2]			2.07		50 (≈ 90 µg/mL)		7.23		
CC(=O)N1CCC[C@]12CC=CCCCC1(CCCC=CCCCCCC[C@@](C)(C(=O)N[C@@H](Cc3ccccc3Cl)C(=O)N[C@@H](Cc3csc4ccccc34)C(=O)N[C@@H](CCC(N)=O)C(N)=O)NC(=O)[C@H](CC(C)C)NC(=O)[C@H](Cc3ccccc3)NC(=O)[C@H](C)NC(=O)[C@H](C)NC(=O)[C@H](CN(CC(=O)O)CC(F)(F)F)NC(=O)[C@H](CC(=O)O)NC1=O)NC(=O)[C@H](CC(C)(C)C)NC(=O)[C@H](CC(=O)O)NC2=O (stereo partly drawn) [I-994, Ac-PL3-Asp-Npg-B5-Asp-TfeGA-Ala-Ala-Phe-Leu-S8-2C1F-BztA-Gln-NH2]			3.21		10 (≈ 20.1 µg/mL)			6.92	
CC(=O)N1CCC[C@]12CC=CCCCC1(CCCC=CCCCCCC[C@@](C)(C(=O)N[C@@H](Cc3ccccc3C(N)=O)C(=O)N[C@@H](Cc3csc4ccccc34)C(=O)N[C@@H](CCC(N)=O)C(N)=O)NC(=O)[C@H](C(C)C)NC(=O)[C@H](Cc3ccccc3)NC(=O)[C@H](C)NC(=O)[C@H](C)NC(=O)[C@H](CC(=O)O)NC(=O)[C@H](CC(=O)O)NC1=O)NC(=O)[C@H](C)NC(=O)[C@H](CC(=O)O)NC2=O (stereo partly drawn) [I-336, Ac-PL3-Asp-Ala-B5-Asp-Asp-Ala-Ala-Phe-Val-S8-2CBMF-BztA-Gln-NH2]		48 (≈ 88.4 µg/mL)	1.74				6.82		
CC(=O)N1CCC[C@]12CC=CCCCC1(CCCC=CCCCCCC[C@@](C)(C(=O)N[C@@H](Cc3ccccc3)C(=O)N[C@@H](Cc3csc4ccccc34)C(=O)N[C@@H](CCC(N)=O)C(N)=O)NC(=O)[C@H](C)NC(=O)[C@H](Cc3cccc(C(F)(F)F)c3)NC(=O)[C@H](C)NC(=O)[C@H](C)NC(=O)[C@H](CC(=O)O)NC(=O)[C@H](CC(=O)O)NC1=O)NC(=O)[C@H](C)NC(=O)[C@H](CC(=O)O)NC2=O (stereo partly drawn) [I-374, Ac-PL3-Asp-Ala-B5-Asp-Asp-Ala-Ala-3F3MeF-Ala-S8-Phe-BztA-Gln-NH2]					49 (≈ 90.1 µg/mL)	2.242	5.52		5.52
CC(=O)N1CCC[C@]12CC=CCCCC1(CCCC=CCCCOC(=O)N3CC[C@@](C(=O)N[C@@H](Cc4ccccc4Cl)C(=O)N[C@@H](Cc4csc5ccccc45)C(=O)N[C@H](C(N)=O)[C@@H](C)O)(C3)NC(=O)[C@H](CC(C)C)NC(=O)[C@H](Cc3ccccc3)NC(=O)[C@H](C)NC(=O)[C@H](C)NC(=O)[C@H](CCC(=O)O)NC(=O)[C@H](CC(=O)O)NC1=O)NC(=O)[C@H](CC(C)(C)C)NC(=O)[C@H](CC(=O)O)NC2=O (stereo partly drawn) [I-1071, Ac-PL3-Asp-Npg-B5-Asp-Glu-Ala-Ala-Phe-Leu-PyrS2-2C1F-BztA-Thr-NH2]					33 (≈ 63.8 µg/mL)	2.218		5.90	5.90
CC(=O)N1CCC[C@]12CC=CCCCC1(CCCC=CCCCOC(=O)N3CC[C@@](C(=O)N[C@@H](Cc4ccccc4)C(=O)N[C@@H](Cc4csc5ccccc45)C(=O)N[C@@H](CCC(N)=O)C(N)=O)(C3)NC(=O)[C@H](CC(C)C)NC(=O)[C@H](Cc3ccccc3)NC(=O)[C@H](C)NC(=O)[C@H](C)NC(=O)[C@H](CCC(=O)O)NC(=O)[C@H](CC(=O)O)NC1=O)NC(=O)[C@H](CC(C)(C)C)NC(=O)[C@H](CC(=O)O)NC2=O (stereo partly drawn) [I-1074, Ac-PL3-Asp-Npg-B5-Asp-Glu-Ala-Ala-Phe-Leu-PyrS2-Phe-BztA-Gln-NH2]					34 (≈ 65.5 µg/mL)	1.92		6.30	6.30
CC[C@H](C)[C@@H]1NC(=O)[C@H](CC(=O)O)NC(=O)[C@]2(CC=CCCCC3(CCCC=CCCCCCC[C@@](C)(C(=O)N[C@@H](Cc4ccccc4)C(=O)N[C@@H](Cc4csc5ccccc45)C(=O)N[C@H](C(N)=O)[C@@H](C)O)NC(=O)[C@H](CCC(N)=O)NC(=O)[C@H](Cc4ccccc4)NC(=O)[C@H](C)NC(=O)[C@H](C)NC(=O)[C@H](CCC(=O)O)NC(=O)[C@H](CC(=O)O)NC3=O)NC1=O)CCCN2C(C)=O (stereo partly drawn) [I-641, Ac-PL3-Asp-Ile-B5-Asp-Glu-Ala-Ala-Phe-Gln-S8-Phe-BztA-Thr-NH2]	6.91			6.91	43 (≈ 79.8 µg/mL)	2.497			
CC[C@H](C)[C@@H]1NC(=O)[C@H](CC(=O)O)NC(=O)[C@]2(CC=CCCCC3(CCCC=CCCCCCC[C@@](C)(C(=O)N[C@@H](Cc4ccsc4)C(=O)N[C@@H](Cc4csc5ccccc45)C(=O)N[C@@H](Cc4c[nH]cn4)C(N)=O)NC(=O)[C@H](CC(N)=O)NC(=O)[C@H](Cc4ccccc4)NC(=O)[C@H](C)NC(=O)[C@H](C)NC(=O)[C@H](CC(=O)O)NC(=O)[C@H](CC(=O)O)NC3=O)NC1=O)CCCN2C(C)=O (stereo partly drawn) [I-555, Ac-PL3-Asp-Ile-B5-Asp-Asp-Ala-Ala-Phe-Asn-S8-3Thi-BztA-His-NH2]	7.39			7.39	41 (≈ 76.7 µg/mL)	2.374			
CC(=O)N1CCC[C@]12CC=CCCCC1(CCCC=CCCCCCC[C@@](C)(C(=O)N[C@@H](Cc3ccccc3)C(=O)N[C@@H](Cc3csc4ccccc34)C(=O)N[C@H](CC(N)=O)C(N)=O)NC(=O)[C@H](CC(N)=O)NC(=O)[C@H](Cc3ccccc3)NC(=O)[C@H](C)NC(=O)[C@H](C)NC(=O)[C@H](CCC(=O)O)NC(=O)[C@H](CC(=O)O)NC1=O)NC(=O)[C@H](CC(C)C)NC(=O)[C@H](CC(=O)O)NC2=O (stereo partly drawn) [I-758, Ac-PL3-Asp-Leu-B5-Asp-Glu-Ala-Ala-Phe-Asn-S8-Phe-BztA-dAsn-NH2]				7.33	47 (≈ 87.2 µg/mL)	2.571		7.33	
CC(=O)N1CCC[C@]12CC=CCCCC1(CCCC=CCCCCCC[C@@](C)(C(=O)N[C@@H](Cc3ccccc3)C(=O)N[C@@H](Cc3csc4ccccc34)C(=O)N[C@@H](CCC(N)=O)C(=O)NC(C)(C)C(N)=O)NC(=O)[C@H](CC(N)=O)NC(=O)[C@H](Cc3ccccc3)NC(=O)[C@H](C)NC(=O)[C@H](C)NC(=O)[C@H](CCC(=O)O)NC(=O)[C@H](CC(=O)O)NC1=O)NC(=O)[C@H](CC(C)C)NC(=O)[C@H](CC(=O)O)NC2=O (stereo partly drawn) [I-737, Ac-PL3-Asp-Leu-B5-Asp-Glu-Ala-Ala-Phe-Asn-S8-Phe-BztA-Gln-Aib-NH2]	6.45	44 (≈ 86 µg/mL)	2.73						
